Test results from US20260034119A1, “5-METHOXY-N,N-[…][…], THEIR […], AND METHODS FOR TREATMENT OF NEUROLOGICAL, […], AND SUBSTANCE USE DISORDERS” (priority 2023, published 2026).
Residue numbers refer to the chain shown, from its start. Entries after “also recorded” stand apart in the source; their conditions may differ.

Tests used:
OCT1 = biological target: T1, OCT1 (Homo sapiens, UniProt O15245); test: OCT1 uptake inhibition; assay type: cell-based; settings: compared with 5-HT1A
T1 construct: expressed in transfected cells; host or cells: Flp-In T-Rex cell line (ThermoFisher), tetracycline-induced
T1 sequence (O15245 1-554): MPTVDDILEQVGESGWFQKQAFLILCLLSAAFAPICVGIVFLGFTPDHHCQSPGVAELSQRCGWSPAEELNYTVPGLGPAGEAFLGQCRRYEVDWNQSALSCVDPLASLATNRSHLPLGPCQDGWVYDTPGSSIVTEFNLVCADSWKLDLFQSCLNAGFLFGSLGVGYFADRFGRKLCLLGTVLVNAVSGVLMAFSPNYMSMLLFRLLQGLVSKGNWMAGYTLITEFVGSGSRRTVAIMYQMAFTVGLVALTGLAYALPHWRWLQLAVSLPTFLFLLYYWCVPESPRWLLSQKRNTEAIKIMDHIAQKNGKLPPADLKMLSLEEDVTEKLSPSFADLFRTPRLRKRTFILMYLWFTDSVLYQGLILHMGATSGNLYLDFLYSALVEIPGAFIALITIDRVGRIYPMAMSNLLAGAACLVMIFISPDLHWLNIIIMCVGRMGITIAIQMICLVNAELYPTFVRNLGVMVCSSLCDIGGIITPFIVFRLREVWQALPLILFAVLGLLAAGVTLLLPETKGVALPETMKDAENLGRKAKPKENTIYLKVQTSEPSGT
Protocol: (§1) Inducible cell lines stably expressing OCT1, OCT2, or PMAT were generated using the Flp-In T-Rex cell line (ThermoFisher) according to manufacturer recommendations. Cells were maintained in DMEM supplemented with 10% FBS, 100 μg/ml hygromycin B (GoldBio), and 10 μg/ml blasticidin (GoldBio). To measure uptake inhibition, cells were seeded into poly-L-lysine coated clear-bottom 384-well plates at a density of 25,000 cells per well in DMEM containing 10% FBS and 2 μg/ml of tetracycline (Sigma) to induce transporter expression. […] Cells were incubated with drug for 30 min at 37° C. Fluorescent substrate was then added to the cells. […] Cells were incubated with respective substrates for an hour at 37° C. OCT2 cells were read directly in a Victor NIVO plate reader using 495 nm excitation and 580 emission filter for 0.1 s. OCT1 and PMAT cells were washed in HBSS supplemented with 20 mM HEPES pH 7.4 before reading in a Victor NIVO plate reader using 435 nm excitation and 480 nm emission filter for 0.1 s.

C57BL/6J mice = test: Social interaction test after chronic social defeat stress (CSDS)
human 5-HT1A = biological target: T2, human 5-HT1A (Homo sapiens, UniProt P08908); test: 5-HT1A-mediated cAMP reduction assay (GloSensor, HEK293-T); settings: cAMP, 5-HT1A WT
T2 sequence (P08908 1-422): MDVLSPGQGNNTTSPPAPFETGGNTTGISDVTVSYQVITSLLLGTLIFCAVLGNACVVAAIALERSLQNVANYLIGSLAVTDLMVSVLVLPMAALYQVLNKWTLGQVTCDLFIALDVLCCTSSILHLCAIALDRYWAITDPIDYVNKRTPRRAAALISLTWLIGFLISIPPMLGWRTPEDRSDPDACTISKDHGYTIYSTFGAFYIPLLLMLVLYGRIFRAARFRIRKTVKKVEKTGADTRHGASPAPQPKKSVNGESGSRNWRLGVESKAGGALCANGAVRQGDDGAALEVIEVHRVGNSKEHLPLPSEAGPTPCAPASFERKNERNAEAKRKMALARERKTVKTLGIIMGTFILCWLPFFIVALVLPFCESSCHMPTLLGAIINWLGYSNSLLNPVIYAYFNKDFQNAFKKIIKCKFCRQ

5-HT1A A365N = biological target: T3, 5-HT1A A365N (Homo sapiens, UniProt P08908, A365N); test: Gi1 BRET at mutant 5-HT1A A365N; assay type: cell-based; settings: Gi1 BRET, 5-HT1A A365N^6.55
T3 construct: expressed in transfected cells; host or cells: HEK293-T
T3 sequence (P08908 1-422 A365N): T2 sequence (P08908 1-422) with A365N

mice = test: Open field locomotor activity; assay type: in vivo, mouse
PMAT = biological target: T4, PMAT (Homo sapiens, UniProt Q7RTT9); test: PMAT uptake inhibition; assay type: cell-based; settings: compared with 5-HT1A
T4 construct: expressed in transfected cells; host or cells: Flp-In T-Rex cell line (ThermoFisher), tetracycline-induced
T4 sequence (Q7RTT9 1-530): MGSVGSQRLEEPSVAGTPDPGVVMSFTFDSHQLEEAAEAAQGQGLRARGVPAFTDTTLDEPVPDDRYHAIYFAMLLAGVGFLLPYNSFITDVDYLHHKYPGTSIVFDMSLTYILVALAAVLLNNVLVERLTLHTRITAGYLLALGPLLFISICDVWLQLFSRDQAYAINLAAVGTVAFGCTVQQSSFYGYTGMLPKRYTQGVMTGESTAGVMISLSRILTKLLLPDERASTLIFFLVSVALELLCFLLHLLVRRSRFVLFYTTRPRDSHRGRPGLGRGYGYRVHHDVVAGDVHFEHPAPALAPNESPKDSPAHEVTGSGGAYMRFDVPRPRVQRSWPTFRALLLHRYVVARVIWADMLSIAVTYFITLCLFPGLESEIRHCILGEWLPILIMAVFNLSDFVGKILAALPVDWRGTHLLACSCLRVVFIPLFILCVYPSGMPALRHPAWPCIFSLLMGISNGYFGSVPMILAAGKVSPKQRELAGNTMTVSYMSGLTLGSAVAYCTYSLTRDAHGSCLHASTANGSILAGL
Protocol: as §1

For COc1ccc2[nH]cc(CCN3CCCC3)c2c1F [4-F, 5-MeO-PyrT, 4-Fluoro, 5-methoxypyrrolidinyl-tryptamine], the “activity at other neurotransmitter transporters (OCT1)” value (OCT1) was “substantially lower activity”, the “number of resilient mice (SI ratio >1)” value (C57BL/6J mice; drug- vs vehicle-treated stressed animals) was “markedly increases the number of resilient mice” and the “general locomotion at the social interaction test” value (C57BL/6J mice; mice, one s.c. administration) was “no effects of the pharmacological intervention on general locomotion; also recorded: no apparent alterations in locomotor activity”. For the same molecule, the “amelioration of SI deficits under WAY-100635 co-administration” value (C57BL/6J mice; stressed mice, co-administered 5-HT1A antagonist WAY-100635) was “blocked”, the “corner time (anxiety-like behavior)” value (C57BL/6J mice; stressed mice, one s.c. administration) was “rescued; also recorded: no longer observed” and the “social interaction deficit induced by chronic social defeat stress” value (C57BL/6J mice; stressed mice, one s.c. administration, test 24 hr post drug) was “rescued; also recorded: rescuing the social interaction deficit”. The EC50 (human 5-HT1A) was 0.03 nM, the pEC50 (human 5-HT1A) was 10.5 and the pEC50 (5-HT1A A365N) was “(8.29,”. The EC50 (5-HT1A A365N; read-out: EC50) was 5.08 nM, the “lowest dose producing suppression of locomotion” value (mice; mice, s.c.) was 0.03 mg/kg and the “sedative effects after WAY-100635 pretreatment” value (mice; open field, WAY-100635 1 mg/kg s.c. 15 min prior, compound 1 mg/kg s.c.) was “negates the sedative effects”. For the same molecule, the “activity at other neurotransmitter transporters (PMAT)” value (PMAT) was “substantially lower activity”.
